According to the supplement of paper PMC10307832:

What was measured:
Test in all cases: relative viability (nuclei count vs DMSO), 5 days (fraction); higher = more cells survive
BEN = test system: BEN
Method in brief: (§1)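 Lung cancer cell lines, seeded in 1536-well plates, were treated the following day by pin tool with a single drug or with five library-drug doses (not always all listed) in √10 steps on top of a fixed anchor-drug dose. Cells were fixed and nuclei stained in one step after 5 days, and nuclei were counted. Relative viability is the nuclei count for treated wells divided by that for vehicle wells, reported as medians of duplicate plates.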

EKVX = test system: EKVX
Method in brief: as §1

HCC-15 = test system: HCC-15
Method in brief: as §1

HCC-366 = test system: HCC-366
Method in brief: as §1

HCC-44 = test system: HCC-44
Method in brief: as §1

LCLC-103H = test system: LCLC-103H
Method in brief: as §1

LOU-NH91 = test system: LOU-NH91
Method in brief: as §1

NCI-H1355 = test system: NCI-H1355
Method in brief: as §1

NCI-H1395 = test system: NCI-H1395
Method in brief: as §1

NCI-H1437 = test system: NCI-H1437
Method in brief: as §1

NCI-H1650 = test system: NCI-H1650
Method in brief: as §1

NCI-H1651 = test system: NCI-H1651
Method in brief: as §1

NCI-H1734 = test system: NCI-H1734
Method in brief: as §1

NCI-H1755 = test system: NCI-H1755
Method in brief: as §1

NCI-H1975 = test system: NCI-H1975
Method in brief: as §1

NCI-H2023 = test system: NCI-H2023
Method in brief: as §1

NCI-H2085 = test system: NCI-H2085
Method in brief: as §1

NCI-H2342 = test system: NCI-H2342
Method in brief: as §1

NCI-H358 = test system: NCI-H358
Method in brief: as §1

NCI-H441 = test system: NCI-H441
Method in brief: as §1

NCI-H460 = test system: NCI-H460
Method in brief: as §1

NCI-H838 = test system: NCI-H838
Method in brief: as §1

Which relative viability (BEN; first compound 0.04 µM) does the source give for `Clc1ccc(Nc2nnc(Cc3ccncc3)c3ccccc23)cc1` [Vatalanib] + Nc1ncn([C@H]2C[C@H](O)[C@@H](CO)O2)c(=O)n1 [Decitabine] (partner 2 µM) here?
The relative viability was 0.644.

What about the relative viability (BEN; first compound 0.1265 µM) of the same compound?
Its relative viability is 0.727.

What about the relative viability (BEN; first compound 0.4 µM) of the same compound?
Its relative viability is 0.504.

And the relative viability (BEN; first compound 1.265 µM)?
Its relative viability is 0.739.

And the relative viability (BEN; first compound 4 µM)?
Its relative viability is 0.774.

What about the relative viability (EKVX; first compound 0.04 µM) of the same compound?
Its relative viability is 0.41.

And the relative viability (EKVX; first compound 0.1265 µM)?
The relative viability was 0.346.

What about the relative viability (EKVX; first compound 0.4 µM) of the same compound?
The relative viability was 0.308.

What about the relative viability (EKVX; first compound 1.265 µM) of the same compound?
The relative viability was 0.338.

What about the relative viability (EKVX; first compound 4 µM) of the same compound?
The relative viability was 0.296.

What about the relative viability (HCC-15; first compound 0.04 µM) of the same compound?
The relative viability was 0.607.

What about the relative viability (HCC-15; first compound 0.1265 µM) of the same compound?
Its relative viability is 0.689.

And the relative viability (HCC-15; first compound 0.4 µM)?
The relative viability was 0.716.

What about the relative viability (HCC-15; first compound 1.265 µM) of the same compound?
Its relative viability is 0.627.

And the relative viability (HCC-15; first compound 4 µM)?
The relative viability was 0.665.

And the relative viability (HCC-366; first compound 0.04 µM)?
Its relative viability is 0.328.

What about the relative viability (HCC-366; first compound 0.1265 µM) of the same compound?
The relative viability was 0.271.

What about the relative viability (HCC-366; first compound 0.4 µM) of the same compound?
Its relative viability is 0.395.

And the relative viability (HCC-366; first compound 1.265 µM)?
Its relative viability is 0.312.

And the relative viability (HCC-366; first compound 4 µM)?
Its relative viability is 0.348.

And the relative viability (HCC-44; first compound 0.04 µM)?
The relative viability was 0.961.

And the relative viability (HCC-44; first compound 0.1265 µM)?
Its relative viability is 0.944.

And the relative viability (HCC-44; first compound 0.4 µM)?
The relative viability was 0.976.

What about the relative viability (HCC-44; first compound 1.265 µM) of the same compound?
The relative viability was 0.906.

What about the relative viability (HCC-44; first compound 4 µM) of the same compound?
Its relative viability is 0.961.

And the relative viability (LCLC-103H; first compound 0.04 µM)?
The relative viability was 0.715.

What about the relative viability (LCLC-103H; first compound 0.1265 µM) of the same compound?
Its relative viability is 0.722.

What about the relative viability (LCLC-103H; first compound 0.4 µM) of the same compound?
The relative viability was 0.759.

And the relative viability (LCLC-103H; first compound 1.265 µM)?
Its relative viability is 0.71.

And the relative viability (LCLC-103H; first compound 4 µM)?
Its relative viability is 0.725.

What about the relative viability (LOU-NH91; first compound 0.04 µM) of the same compound?
Its relative viability is 0.766.

And the relative viability (LOU-NH91; first compound 0.1265 µM)?
Its relative viability is 0.81.

And the relative viability (LOU-NH91; first compound 0.4 µM)?
Its relative viability is 0.766.

What about the relative viability (LOU-NH91; first compound 1.265 µM) of the same compound?
Its relative viability is 0.824.

And the relative viability (LOU-NH91; first compound 4 µM)?
Its relative viability is 0.823.

And the relative viability (NCI-H1355; first compound 0.04 µM)?
Its relative viability is 0.393.

And the relative viability (NCI-H1355; first compound 0.1265 µM)?
The relative viability was 0.328.

And the relative viability (NCI-H1355; first compound 0.4 µM)?
Its relative viability is 0.343.

And the relative viability (NCI-H1355; first compound 1.265 µM)?
The relative viability was 0.33.

What about the relative viability (NCI-H1355; first compound 4 µM) of the same compound?
Its relative viability is 0.356.

And the relative viability (NCI-H1395; first compound 0.04 µM)?
Its relative viability is 0.718.

What about the relative viability (NCI-H1395; first compound 0.1265 µM) of the same compound?
Its relative viability is 0.702.

What about the relative viability (NCI-H1395; first compound 0.4 µM) of the same compound?
The relative viability was 0.722.

And the relative viability (NCI-H1395; first compound 4 µM)?
Its relative viability is 0.665.

And the relative viability (NCI-H1437; first compound 0.04 µM)?
The relative viability was 0.53.

And the relative viability (NCI-H1437; first compound 0.1265 µM)?
The relative viability was 0.523.

And the relative viability (NCI-H1437; first compound 0.4 µM)?
The relative viability was 0.573.

What about the relative viability (NCI-H1437; first compound 1.265 µM) of the same compound?
Its relative viability is 0.587.

What about the relative viability (NCI-H1437; first compound 4 µM) of the same compound?
Its relative viability is 0.608.

And the relative viability (NCI-H1650; first compound 0.04 µM)?
Its relative viability is 0.361.

What about the relative viability (NCI-H1650; first compound 0.1265 µM) of the same compound?
The relative viability was 0.414.

And the relative viability (NCI-H1650; first compound 0.4 µM)?
Its relative viability is 0.388.

What about the relative viability (NCI-H1650; first compound 1.265 µM) of the same compound?
The relative viability was 0.373.

What about the relative viability (NCI-H1650; first compound 4 µM) of the same compound?
Its relative viability is 0.424.

And the relative viability (NCI-H1651; first compound 0.04 µM)?
The relative viability was 0.518.

What about the relative viability (NCI-H1651; first compound 0.1265 µM) of the same compound?
Its relative viability is 0.59.

What about the relative viability (NCI-H1651; first compound 0.4 µM) of the same compound?
The relative viability was 0.495.

And the relative viability (NCI-H1651; first compound 1.265 µM)?
The relative viability was 0.565.

What about the relative viability (NCI-H1651; first compound 4 µM) of the same compound?
The relative viability was 0.668.

And the relative viability (NCI-H1734; first compound 0.04 µM)?
Its relative viability is 0.575.

What about the relative viability (NCI-H1734; first compound 0.1265 µM) of the same compound?
The relative viability was 0.51.

And the relative viability (NCI-H1734; first compound 0.4 µM)?
The relative viability was 0.592.

And the relative viability (NCI-H1734; first compound 1.265 µM)?
The relative viability was 0.477.

What about the relative viability (NCI-H1734; first compound 4 µM) of the same compound?
The relative viability was 0.518.

What about the relative viability (NCI-H1755; first compound 0.04 µM) of the same compound?
The relative viability was 0.691.

What about the relative viability (NCI-H1755; first compound 0.1265 µM) of the same compound?
Its relative viability is 0.76.

And the relative viability (NCI-H1755; first compound 0.4 µM)?
Its relative viability is 0.745.

What about the relative viability (NCI-H1755; first compound 1.265 µM) of the same compound?
Its relative viability is 0.707.

And the relative viability (NCI-H1755; first compound 4 µM)?
The relative viability was 0.728.

What about the relative viability (NCI-H1975; first compound 0.04 µM) of the same compound?
The relative viability was 0.423.

What about the relative viability (NCI-H1975; first compound 0.1265 µM) of the same compound?
Its relative viability is 0.378.

And the relative viability (NCI-H1975; first compound 0.4 µM)?
The relative viability was 0.401.

And the relative viability (NCI-H1975; first compound 1.265 µM)?
Its relative viability is 0.391.

And the relative viability (NCI-H1975; first compound 4 µM)?
Its relative viability is 0.397.

And the relative viability (NCI-H2023; first compound 0.04 µM)?
The relative viability was 0.22.

What about the relative viability (NCI-H2023; first compound 0.1265 µM) of the same compound?
Its relative viability is 0.205.

And the relative viability (NCI-H2023; first compound 0.4 µM)?
The relative viability was 0.231.

What about the relative viability (NCI-H2023; first compound 1.265 µM) of the same compound?
The relative viability was 0.221.

And the relative viability (NCI-H2023; first compound 4 µM)?
The relative viability was 0.219.

And the relative viability (NCI-H2085; first compound 0.04 µM)?
Its relative viability is 0.556.

What about the relative viability (NCI-H2085; first compound 0.1265 µM) of the same compound?
The relative viability was 0.552.

What about the relative viability (NCI-H2085; first compound 0.4 µM) of the same compound?
The relative viability was 0.476.

And the relative viability (NCI-H2085; first compound 1.265 µM)?
The relative viability was 0.52.

And the relative viability (NCI-H2085; first compound 4 µM)?
Its relative viability is 0.527.

And the relative viability (NCI-H2342; first compound 0.04 µM)?
The relative viability was 0.611.

What about the relative viability (NCI-H2342; first compound 0.1265 µM) of the same compound?
The relative viability was 0.781.

What about the relative viability (NCI-H2342; first compound 0.4 µM) of the same compound?
Its relative viability is 0.718.

And the relative viability (NCI-H2342; first compound 1.265 µM)?
Its relative viability is 0.736.

What about the relative viability (NCI-H2342; first compound 4 µM) of the same compound?
Its relative viability is 0.641.

What about the relative viability (NCI-H358; first compound 0.04 µM) of the same compound?
The relative viability was 0.23.

And the relative viability (NCI-H358; first compound 0.1265 µM)?
The relative viability was 0.204.

What about the relative viability (NCI-H358; first compound 0.4 µM) of the same compound?
The relative viability was 0.246.

What about the relative viability (NCI-H358; first compound 1.265 µM) of the same compound?
The relative viability was 0.21.

And the relative viability (NCI-H358; first compound 4 µM)?
The relative viability was 0.234.

And the relative viability (NCI-H441; first compound 0.04 µM)?
The relative viability was 0.237.

And the relative viability (NCI-H441; first compound 0.1265 µM)?
Its relative viability is 0.212.

And the relative viability (NCI-H441; first compound 0.4 µM)?
Its relative viability is 0.206.

And the relative viability (NCI-H441; first compound 1.265 µM)?
Its relative viability is 0.228.

What about the relative viability (NCI-H441; first compound 4 µM) of the same compound?
Its relative viability is 0.242.

What about the relative viability (NCI-H460; first compound 0.04 µM) of the same compound?
Its relative viability is 0.502.

What about the relative viability (NCI-H460; first compound 0.1265 µM) of the same compound?
Its relative viability is 0.481.

What about the relative viability (NCI-H460; first compound 0.4 µM) of the same compound?
Its relative viability is 0.482.

What about the relative viability (NCI-H460; first compound 1.265 µM) of the same compound?
The relative viability was 0.47.

What about the relative viability (NCI-H460; first compound 4 µM) of the same compound?
The relative viability was 0.495.

What about the relative viability (NCI-H838; first compound 0.04 µM) of the same compound?
Its relative viability is 0.435.

What about the relative viability (NCI-H838; first compound 0.1265 µM) of the same compound?
The relative viability was 0.467.

And the relative viability (NCI-H838; first compound 0.4 µM)?
Its relative viability is 0.441.

And the relative viability (NCI-H838; first compound 1.265 µM)?
Its relative viability is 0.483.

And the relative viability (NCI-H838; first compound 4 µM)?
Its relative viability is 0.448.
